Earlier results on one molecule are cited in patent US20110308985A1, “COMPOSITION OF A LIPOSOMAL GEL CONTAINING HYDROCORTISONE, ITS METABOLITES, PRECURSORS OR MIXTURES THEREOF AND THE USE THEREOF” (priority 2009, published 2011).

`C[C@]12CCC(=O)C=C1CC[C@@H]1[C@@H]2[C@@H](O)C[C@@]2(C)[C@H]1CC[C@]2(O)C(=O)CO` [hydrocortisone, (11beta)-11,17,21-trihydroxypregn-4-ene-3,20-dione]: the “serum peak relative to the physiological morning peak” value (about 1 hour after intake of a tablet) is “over 3 times”. For the same molecule, under “oral administration form”, the biological half-life result is “about 100 minutes”.
